Measured values as given in patent US5340929A, “Trisazo dye and dye composition containing the same” (Orient Chemical Industries, Ltd., priority 1992, dated 1994).
Read-outs that look alike come from different tables or passages of the source.

Experiments:
[1] = prior art statement, background; cited from earlier work
[2] = prior art statement, background; cited from earlier work; remark: listed apart in the source
[3] = Water resistance of writing (drawdown paper dipped in tap water, reflection density); format: physicochemical; conditions: drawndown paper, 3% dye solution, air-dried one day
Protocol: Light resistance: The resulting dye was dissolved in a 5% aqueous diethylene glycol solution to obtain a 3% dye solution. […] A degree of discoloration was compared with that before testing.
Water resistance: The drawndown paper was air-dried for one day and dipped in tap water.
A: Reflection density is more than 70% of that before testing.
B: Reflection density is 50 to 70% of that before testing.
C: Reflection density is less than 50% that before testing.

[4] = system: strains TA98; format: cell-based
Protocol: Further, the trisazo dye of the present invention is a nontoxic trisazo dye which gives negative results in a back mutation test using an organism, which is generally known as a test method for evaluating toxicity, i.e. AMES test (mutation test).
Evaluation method of Ames test
Regarding various specimen solutions respectively containing a trisazo dyes obtained in Examples 1 to 8 of the present invention and dyes of Comparative Examples 1 to 3, the number of mutant colonies was determined using strains TA98. 2. When the ratio is less than 2, it is "negative" and, when the ratio is more than 2, it is "positive", and the results are shown in Table. 1.

[5] = Hue of dye / writing; format: physicochemical
[6] = system: strains TA98; conditions: prior art statement, background; cited from earlier work

Row | Structure (SMILES) | Water resistance of aqueous ink [1] | Light resistance of aqueous ink [2] | Writing evaluation: Water resistance [3] | Ames test: ratio of the number of colonies to control ([4]; TA98, S-9 (+), 20 μg/plate) | Ames test: ratio of the number of colonies to control ([4]; TA98, S-9 (+), 78 μg/plate) | Ames test: ratio of the number of colonies to control ([4]; TA98, S-9 (+), 313 μg/plate) | Ames test: ratio of the number of colonies to control ([4]; TA98, S-9 (+), 1250 μg/plate) | Ames test: ratio of the number of colonies to control ([4]; TA98, S-9 (+), 5000 μg/plate) | Ames test: ratio of the number of colonies to control ([4]; TA98, S-9 (-), 20 μg/plate) | Ames test: ratio of the number of colonies to control ([4]; TA98, S-9 (-), 78 μg/plate) | Ames test: ratio of the number of colonies to control ([4]; TA98, S-9 (-), 313 μg/plate) | Ames test: ratio of the number of colonies to control ([4]; TA98, S-9 (-), 1250 μg/plate) | Ames test: ratio of the number of colonies to control ([4]; TA98, S-9 (-), 5000 μg/plate) | Hue [5] | Hue ([5]; listed as Comp. Example 3) | Ames test result [6]
1 | Nc1cc2c(O)c(N=Nc3ccc(N=Nc4ccc(S(=O)(=O)[O-])cc4)c4ccc(S(=O)(=O)[O-])cc34)c(S(=O)(=O)[O-])cc2cc1S(=O)(=O)[O-].[Na+].[Na+].[Na+].[Na+] [Food Black 2] | poor | poor | – | – | – | – | – | – | – | – | – | – | – | – | – | –
2 | Cc1cc(-c2ccc(N=Nc3c(S(=O)(=O)[O-])cc4cc(S(=O)(=O)[O-])c(N=Nc5ccccc5)c(O)c4c3N)c(C)c2)ccc1N=Nc1ccc(N)cc1N.[Na+].[Na+] [compound 3, C.I. Direct Black 154, reference compound] | – | – | B (Reflection density is 50 to 70% of that before testing.) | 1.92 | 2.35 | 2.50 | 1.50 | 0.85 | 0.72 | 0.68 | 0.84 | 0.76 | 0.96 | Greenish | greenish black | false positive or positive
